Assay results from PubChem BioAssay AID179 (DTP/NCI, 2004).
Active and inactive are the calls of the source.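 Rule for the calls: active = compounds giving half or more protection of infected cells from virus-caused growth loss, again on retest; inactive = the rest.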 Where a SMILES comes first, the peptide text is derived from it. The star is where a group is joined. Boc = CC(C)(C)OC(=O)*

Tested on: CEM cells HIV-1 protection, formazan growth assay
Assay: NCI AIDS Antiviral Assay
Conditions: for IC50: measured here: growth of uninfected CEM cells
Summary of the method: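 Steps: treat uninfected and HIV-1-infected human CEM cells at five drug levels; quantify growth by soluble formazan; retest any compound reaching 50% protection; classify actives from the retest.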

SMILES | EC50 | IC50 | outcome
C[C@]12CC[C@H](OS(=O)(=O)O)CC1CCC1C2CC[C@@]2(C)C1CC[C@@H]2CO (some centres not stated) | > 60.3 µM | > 60.3 µM | –
Cc1ccc(/C=C(\C#N)C(=O)c2ccccc2)cc1 | > 145 µM | 102 µM | –
COc1ccc(Cc2c[n+](C)cc3cc(N=O)c(OC)cc23)cc1O | > 200 µM | > 200 µM | –
Cc1cn(C2C[C@@H]3C(COC(c4ccc([N+](=O)[O-])cc4)N3O)O2)c(=O)[nH]c1=O (some centres not stated) | > 200 µM | > 200 µM | –
C=CC1(C)CC(=O)C2(O)C(O1)C(OC(C)=O)C(OC(C)=O)C1C2C(OC(C)=O)CCC1(C)C (configuration not stated) | > 26.9 µM | > 26.9 µM | –
OCCN1CSC(=S)NCCNC(=S)SC1 | > 63.1 µM | > 63.1 µM | –
COc1ccc(OC)c2c(=S)c3ccccc3[nH]c12 | – | – | inactive
COC(=O)CNC(=O)C(Cc1ccccc1)NC(=O)C(Cc1ccccc1)NC(=O)OC(C)(C)C (stereo not drawn) (Boc-Phe-Phe-Gly-OMe; configuration not given here) | > 200 µM | 24 µM | –
COC(=O)c1c(C(=O)OC)c(-c2ccccc2)n(-c2ccccc2)c(=O)c1-c1ccccc1 | – | – | inactive
O=C(Cc1cccs1)N[C@@H]1C(=O)N2C(C(=O)OC(c3ccccc3)c3ccccc3)=C(CO)CS[C@H]12 | > 200 µM | 195 µM | –
CC(C)CC(NC(=O)C(CC(=O)O)NC(=O)C(CO)NC(=O)C(CCCCN)NC(=O)C1CCCN1C(=O)C(CC(C)C)NC(=O)C(CO)NC(=O)CNC(=O)C(N)CCC(=O)O)C(=O)NC(CCCN=C(N)N)C(=O)O (configuration not stated) (H-EGSLPKSDLR-OH; configuration not given here) | > 56.2 µM | > 56.2 µM | –
O=c1[nH]c(CCc2ccccc2)nc2ccccc12 | > 7.94 µM | > 7.94 µM | –
COc1ccc2c(c1)C(=O)C13CC(C(=O)O)C(OC(C)=O)(CCC21)C3 (configuration not stated) | > 89.1 µM | > 89.1 µM | –
OC(OCC(COC(O)C(Br)Br)(COC(O)C(Br)Br)COC(O)C(Br)Br)C(Br)Br (configuration not stated) | > 100 µM | > 100 µM | –
O=C(O)c1ccccc1CC1Cc2ccccc2C1 | > 200 µM | > 200 µM | –
CCCc1cc(=O)c2c(C)c3[nH]c4ccc(Cl)cc4c3c(C)c2[nH]1 | > 200 µM | 11 µM | –
Cn1c(=O)c2c(nc3sc4ccccc4c(=O)n32)n(C)c1=O | > 151 µM | > 151 µM | –
N#Cc1sc2nc(/C=C3/C=CC=CC3=O)c(O)n2c1N | > 200 µM | 93.3 µM | –
CC(=O)ON1C(=O)c2cccc3cccc(c23)C1=O | > 200 µM | 18.6 µM | –
N#Cc1nc(C(F)(F)F)oc1N | – | – | inactive
Cc1ccnc2n[nH]nc12 | > 1860 µM | 372 µM | –
O=C1CC2[C@@H](N3CCCC3)CCC(N1Cc1ccccc1)C2(O)O (some centres not stated) | > 200 µM | > 200 µM | –

SMILES | EC50 | IC50 | outcome
Nc1ccc(/C=C/c2ccnc3ccccc23)c(N)c1 | 0.0631 µM | 79.4 µM | –
CC(=O)Nc1ccc(C(=O)N2N=C(C)/C(=C/c3cccc([N+](=O)[O-])c3)C2=O)cc1 | > 47.9 µM | > 47.9 µM | –
NCCN=C(Nc1ccccc1)Nc1ccccc1 | > 200 µM | 29.5 µM | –
C(=C(c1ccc(OC2CCCCO2)cc1)c1ccc(OC2CCCCO2)cc1)c1ccccc1 (configuration not stated) | > 2 µM | 1.12 µM | –
CC(C)(Sc1cc(C(C)(C)C)c(O)c(C(C)(C)C)c1)Sc1cc(C(C)(C)C)c(O)c(C(C)(C)C)c1 | > 26.3 µM | > 26.3 µM | –
O=C(O)CNS(=O)(=O)c1ccc(NC(=O)c2cccc([N+](=O)[O-])c2)cc1 | – | – | inactive
CC(C)(C)C(=O)/C=C/c1ccccc1Cl | > 23.4 µM | > 23.4 µM | –
O=C1OC(=O)C23CSCC12C1C=CC3O1 (configuration not stated) | > 417 µM | > 417 µM | –
O=c1[nH]cc(CCl)c(=O)[nH]1 | > 200 µM | > 200 µM | –
NCCn1cnc2nc(NC(=O)c3ccccc3)[nH]c(=O)c21 | > 166 µM | 91.2 µM | –
CC(C)=CCOC(=O)C(C)=[N+]=[N-] | > 200 µM | 170 µM | –
COc1ccc(-c2oc(C=Nc3ccccc3)c([N+](=O)[O-])c2-c2ccc(OC)c(OC)c2)cc1OC | > 45.7 µM | > 45.7 µM | –
C[C@@H](c1ccccc1)N(CC#N)[C@H]1CCC[C@]1(O)/C=C/c1ccc2c(c1)OCO2 | > 50.1 µM | > 50.1 µM | –
Clc1ccccc1C1SCc2nc3ncccc3n21 (configuration not stated) | > 91.2 µM | 67.6 µM | –
CC1Cc2c(N)nc(NN)nc2NC1=O (configuration not stated) | – | – | inactive
C/C(CC(O)(C(F)(F)F)C(F)(F)F)=N\NC(N)=S | > 200 µM | > 200 µM | –
COc1ccc(-c2nc3c(=O)n(C)c(=O)nc-3n(C)n2)cc1OC | > 20 µM | 0.447 µM | –
CCOC(=O)c1nc(SC)n(C)c1C(=O)OCC | > 200 µM | > 200 µM | –
Nc1nc(Cl)cc(NCC2(CO)CC(Cc3ccccc3)C2)n1 (configuration not stated) | > 20 µM | 0.174 µM | –
C[C@@H](NC(=O)Cn1c(Cl)nc2ccccc21)c1ccccc1 | > 200 µM | 13.5 µM | –
OCC(O)C(O)C(O)c1nn(-c2ccccc2)c2nc3ccc(Cl)cc3nc12 (configuration not stated) | > 112 µM | > 112 µM | –
COc1ccc(S(=O)(=O)N/N=C/c2cc(I)cc([N+](=O)[O-])c2O)cc1OC | > 355 µM | 60.3 µM | –

SMILES | EC50 | IC50 | outcome
c1ccc(CN2CCC3(N4CCOCC4)C(C2)N=NN3c2ccccc2)cc1 (configuration not stated) | > 200 µM | 110 µM | –
Oc1cccc(C(O)CNC2CCCCC2)c1 (configuration not stated) | > 200 µM | > 200 µM | –
O=C1OCCC[C@H]2O[C@@H](COCc3ccccc3)C[C@@H]12 | > 200 µM | > 200 µM | –
CC(C)c1ccccc1NC(=O)/C(Cl)=C1/Sc2ccccc2NC1=O | > 10 µM | > 10 µM | –
Cc1ccc(S(=O)(=O)NNC(=O)c2sc(-c3nc(C)c(C(=O)NNS(=O)(=O)c4ccc(C)cc4)s3)nc2C)cc1 | > 81.3 µM | > 81.3 µM | –
Cc1ccc(N(C(=O)CC(=O)N2N=C(c3ccccc3)C(N=Nc3ccc([N+](=O)[O-])cc3)C2=O)C(=O)c2ccc(Cl)cc2)cc1 (configuration not stated) | > 11.5 µM | 9.12 µM | –
Cc1cn(CCCCCOC(=O)NC(CCCNC(N)=O)C(=O)O)c(=O)[nH]c1=O (configuration not stated) | > 200 µM | > 200 µM | –
O=C(O)CCSC(=O)Nc1cccc([N+](=O)[O-])c1 | – | – | inactive
O=C(NN1C(=O)C(Cl)C1c1cccc(Cl)c1)c1ccccc1O (configuration not stated) | > 74.1 µM | > 74.1 µM | –
CC(=O)OCC12CC(OC(C)=O)C(C)=CC1O[C@@H]1C(O)[C@@H](O)[C@@]2(C)[C@@]12CO2 (some centres not stated) | > 66.1 µM | 0.0282 µM | –
COC(=O)C(C(=O)C(=O)Nc1ccc(OC)cc1[N+](=O)[O-])c1nc2cc(C)c(C)cc2[nH]c1=O (configuration not stated) | > 15.5 µM | > 15.5 µM | –
CCOC(=O)c1sc2[n+](c1C)C(=O)/C(=C/c1cc(OC)c(OC)c(OC)c1)S2 | > 200 µM | 12.9 µM | –
Clc1nssc1=Nc1nonc1-c1ccccc1 | > 200 µM | 5.5 µM | –
CC(C(=O)O)c1ccc(-n2nnc3c(=O)[nH][nH]c(=O)c32)cc1 (configuration not stated) | > 200 µM | > 200 µM | –
CC(=O)C(CN(Cc1ccccc1)Cc1ccccc1)C(c1ccccc1)c1c(O)c2ccccc2oc1=O (configuration not stated) | > 170 µM | > 100 µM | –
CCOC(=O)Cc1csc(/N=C\c2c(O)c3ccccc3oc2=O)n1 | > 200 µM | 40.7 µM | –
NC(=O)N/N=C\CC(O)(C(F)(F)Cl)C(F)(F)Cl | > 200 µM | > 200 µM | –
O=C(OCc1ccccc1)C(Cc1ccc(OCc2ccccc2)cn1)NC(=O)C(F)(F)F (configuration not stated) | > 200 µM | 33.1 µM | –
OC12CCCCCC1(N1CCOCC1)c1ccccc12 (configuration not stated) | > 200 µM | > 200 µM | –
O=C1CC(NC(=O)C(F)(F)F)c2c1csc2Br (configuration not stated) | > 200 µM | 115 µM | –
NS(=O)(=O)c1ccc(NC(=O)/C=C\C(=O)O)cc1 | > 200 µM | > 200 µM | –
O=c1[nH]c(-c2ccccc2)nc2c1OCN(Cc1ccccc1)C2 | > 115 µM | 28.8 µM | –

SMILES | EC50 | IC50 | outcome
Cn1c(=O)nc2n(-c3cc(Cl)ccc3Cl)c3ccccc3nc-2c1=O | – | – | inactive
CC1=C2N3C[C@@H](n4c(=O)n(C)c(=O)n43)C23CCC1n1c(=O)n(C)c(=O)n13 | > 72.4 µM | > 72.4 µM | –
Clc1cc(Cc2cc(Cl)c(Cl)c3c2OCOC3)c2c(c1Cl)COCO2 | – | – | inactive
COC(=O)C(Cc1ccccc1)NP(=O)(O)OCC1OC(n2cc(Br)c(=O)[nH]c2=O)CC1O (configuration not stated) | > 200 µM | > 200 µM | –
Cc1ccc(C2(Br)C(=O)c3ccccc3C2=O)cc1 | > 200 µM | > 200 µM | –
Cc1c2c(n(CCc3ccc(Cl)cc3)c1C)NC(c1ccccc1)C(C#N)S2(=O)=O (configuration not stated) | > 200 µM | 8.91 µM | –
Cc1cc2occ(C)c(=O)c2c2c1OC(C)(C)S2 | > 100 µM | 51.3 µM | –
COc1ccccc1C1C(C(=O)Nc2ccccc2)=C(C)NC(C)=C1C(=O)Nc1ccccc1 | > 21.9 µM | > 21.9 µM | –
Oc1ccc(/C=C/c2cc(O)cc3c2[C@@H](c2cc(O)cc(O)c2)C(c2ccc(O)cc2)O3)cc1 (some centres not stated) | > 31.6 µM | 16.6 µM | –
CCOC(=O)c1nc2ccc(C(F)(F)F)cc2nc1NCc1ccc(F)cc1 | > 200 µM | 23.4 µM | –
COc1ccc(/C=C/C(=O)c2sc(Nc3ccc([N+](=O)[O-])cc3)nc2C)cc1 | > 47.9 µM | 39.8 µM | –
N#CC1=C(N2CCOCC2)CCC1 | > 200 µM | > 200 µM | –
CCOC(=O)NC(C(F)(F)F)(C(F)(F)F)P(=O)(OCC(C)C)OCC(C)C | > 200 µM | 5.37 µM | –
C(=NC12CC3CC(CC(C3)C1)C2)C1CCCCC1 | > 200 µM | > 200 µM | –
O/N=C1/C(=C/c2ccc(Oc3ccccc3)cc2)CCCC1C(NO)c1ccc(Oc2ccccc2)cc1 (configuration not stated) | > 10.2 µM | > 10.2 µM | –
O=C(O)c1ccc(Nc2nc3nn(Cc4ccccc4)cc3c(=O)s2)cc1 | > 195 µM | > 195 µM | –
COC(=O)C(Cc1c[nH]c2ccccc12)NP(=O)(O)OCC1OC(n2cc(F)c(=O)[nH]c2=O)CC1O (configuration not stated) | > 200 µM | > 200 µM | –
O=C1CSCC(=O)O1 | > 1910 µM | > 1910 µM | –
CCC(C)c1cccc(C)c1NC(=O)C(=O)Cc1nc2ccccc2s1 (configuration not stated) | > 186 µM | > 186 µM | –
